Laboratory results as given in US9878036B2, “Immunomodulatory compositions comprising a polymer matrix and an oil phase” (Sigmoid Pharma Limited, priority 2009, dated 2018).

Tested on: BALB/c mice
Settings: mouse, in vivo, po

ovalbumin alone in solution: model antigen ovalbumin (200 μg/mouse) in bicarbonate buffer, oral comparator
OVA-specific IgG antibodies in sera: variable IgG antibody responses
